Data from US20060286159A1 (priority 2003, published 2006).

Experiments:
Assay type in all cases: in vivo, human
[1] = tested on: de Quervain's tendinopathy in the right extensor tendons of the thumb; test: Example 4: patient case, de Quervain's tendinopathy
Source text: A patient suffering de Quervain's tendinopathy in the right extensor tendons of the thumb applies a transdermal patch delivering 10 mcg/hr nitroglycerin for a period of 24 weeks. This condition can be caused due to the arrival of a new baby and the consequent carrying as an unusual daily activity, and as is common, physical therapy and intermittent use of a wrist splint may provide little relief of symptoms.

[2] = tested on: persistent active tendinopathy of the left Achilles tendon; test: Example 3: patient case, persistent active tendinopathy of the left Achilles tendon; conditions: patch 30 mcg/hr for 8 weeks
Source text: A patient suffering from persistent active tendinopathy of the left Achilles tendon applies a transdermal patch delivering 30 mcg/hr nitroglycerin for a period of 8 weeks.

[3] = tested on: chronic overuse tendinopathies; test: The three tendinopathy clinical trials taken together
Source text: Three clinical trials were approved by an institutional Ethics Committee. Patients with clinical diagnoses of the specified tendinopathies were recruited through newspaper advertisements and private consulting rooms. All subjects were over 18 years of age, and gave written informed consent.
The patients were randomly allocated into two groups. […] The active and placebo patches were indistinguishable from one another. The randomization was controlled by the senior pharmacist at the institution who also supervised the packaging of transdermal patches and their distribution to patients. Both the patients and the clinical examiner were blinded as to which group the patients were in, i.e. double-blind.
Patients were instructed in the application of the patches at their initial visit. They were informed that the dosing regimen was one quarter of a transdermal patch to be applied daily to the skin area closest to the affected tendon. The patches were to be left in situ for 24 hours and then replaced with a new quarter patch. […] Patients were instructed to rotate the patch application site around this point with each new patch application for the six-month study duration in an effort to minimize application site irritation.
A single examiner assessed all patients and recorded information on clinical outcome measures. All clinical assessments were repeated at week 0, 2, 6, 12, and 24 with an identical format. Records of headaches, paracetamol use, and compliance with patch application and the tendon rehabilitation program were also made at these scheduled visits. Patients were excluded from the trials for non-compliance at any two visits.
Outcome measures were analyzed with Sigmastat 2.0 statistical software (Jandel Scientific, California, U.S.A) using Mann-Whitney rank sum tests to compare differences between groups, and using the Wilcoxon sign rank test to compare differences within the groups. The level of significance was defined at p=0.05. A Chi square analysis of patient reported symptom outcomes at week 24 was performed. Effect size estimates were calculated by dividing the mean z-score, calculated from all outcome measures at week 24, by the square root of the sample size to given a general measure of the overall effect of the patch on pain, tendon force and function.

[4] = tested on: chronic tennis elbow; test: Example 5: patient case, chronic tennis elbow; conditions: patch 60 mcg/hr for 2 weeks
Source text: A patient suffering from chronic tennis elbow applies a transdermal patch delivering 60 mcg/hr nitroglycerin for a period of 2 weeks.

[5] = GTN group, range over three trials
[6] = GTN groups, range over three trials

O=[N+]([O-])OCC(CO[N+](=O)[O-])O[N+](=O)[O-] [glyceryl trinitrate, 1,2,3-propanetriol trinitrate]
pain after administration is stopped ([1]; 2 years after stop, negative Finklestein test): continue to have reduced pain
pain during administration ([1]; patch 10 mcg/hr for 24 weeks, person): decrease in pain within one day
pain and tenderness of the ankle after discontinuation ([2]; eight weeks following discontinuation): continue to feel decreased pain and tenderness of the ankle
pain and tenderness of the ankle during therapy ([2]; person): reduction of pain and tenderness of the ankle by day 2 of therapy
headache as a side-effect ([3]; GTN group): majority of patients
average number of days of headache [3, 5]: 5 to 6 days
headache, patients [3, 5]: 53-76%
median number of days of headache [3, 5]: 3 to 4 days
headaches that occurred within the first two weeks of the trial ([3]; GTN groups): 72%
average paracetamol usage [3, 6]: 7-14 tablets
median paracetamol usage [3, 6]: 2-10 tablets
patients that experienced no side-effects [3, 6]: 30-44%
total paracetamol usage [3, 6]: 138-237 tablets
patients experiencing application site rash ([3]; GTN groups, range over three trials, placebo 7-12%): 8-21%
tendon pain with activity vs placebo ([3]; all three trials, timing varied): significantly improved
chance of being asymptomatic with activities of daily living vs placebo (Chi square) ([3]; at 24 weeks, all three clinical trials, p=0.001): significantly increased
more patients than in the placebo group asymptomatic with activities of daily living (rated tendon excellent) ([3]; completion of the trials, range over three trials): 21-29%
changes in patient success rates (binomial effect size displays) ([3]; equivalent to effect sizes at week 24): 12-26%
other side-effects (increase in pre-existing tinnitus, ipsilateral axillary sweating, apprehension): severity and reversibility ([3]; human, in vivo): None of these were severe, and all were reversible on discontinuation of the medication
severity of rash vs placebo ([3]; human, in vivo): greater severity of rash
patients discontinued due to headache ([3]; in each clinical trial): 1-2 patients
severity of headaches vs placebo ([3]; in general): more severe headaches
patients discontinued during the trials ([3]; of clinical trial patients, all in GTN groups, headache or application site rash): 4-6%
patients discontinued due to rash, total ([3]; three trials): five
patients discontinued for recurrent facial flushing ([3]; type 2 diabetic, reversible on discontinuation): One
decrease of patient-rated pain scores, range over the trials ([3]; week 0 compared with week 24): 64-67%
increase of force outcome measures, range over the trials ([3]; week 0 compared with week 24): 33-38%
increase of force outcome measures, average ([3]; week 0 compared with week 24, placebo […]%): 37%
decrease of patient-rated pain scores (with activity, at night, at rest), average ([3]; week 0 compared with week 24, placebo 30%): 65%
force outcome measures vs placebo ([3]; week 24, all three trials): significant increases
mean estimated effect sizes ([3]; week 24, range over three trials): 0.12-0.26
continuation of the reduction of symptoms after discontinuance [4]: at least two weeks
